Experimental data reported in patent publication US11180470B2, “Herbicidal pyrimidine compounds” (BASF SE, priority 2016, dated 2021).

Key:
AMARE = experiment: greenhouse experiment, post-emergence treatment; assay type: in vivo, Amaranthus retroflexus; details: post-emergence method, scale from 0 to 100
From the text: (§1) The culture containers used were plastic flowerpots containing loamy sand with approximately 3.0% of humus as the substrate. The seeds of the test plants were sown separately for each species.
(§2) For the post-emergence treatment, the test plants were first grown to a height of 3 to 15 cm, depending on the plant habit, and only then treated with the active ingredients which had been suspended or emulsified in water. For this purpose, the test plants were either sown directly and grown in the same containers, or they were first grown separately as seedlings and transplanted into the test containers a few days prior to treatment.
(§3) Depending on the species, the plants were kept at 10-25° C. or 20-35° C., respectively.
(§4) The test period extended over 2 to 4 weeks. During this time, the plants were tended, and their response to the individual treatments was evaluated.
(§5) Evaluation was carried out using a scale from 0 to 100. 100 means no emergence of the plants, or complete destruction of at least the aerial moieties, and 0 means no damage, or normal course of growth. A good herbicidal activity is given at values of at least 70 and a very good herbicidal activity is given at values of at least 85.
(§6) The plants used in the greenhouse experiments were of the following species: […]

AVEFA = experiment: greenhouse experiment, post-emergence treatment; assay type: in vivo, Avena fatua; details: post-emergence method, application rate 2000 g/ha, scale from 0 to 100
From the text: as §1, §2, §3, §4, §5, §6

ECHCG [1] = experiment: greenhouse experiment, post-emergence treatment; assay type: in vivo, Echinocloa crus-galli; details: post-emergence method, scale from 0 to 100
Procedure: The seeds of the test plants were sown separately for each species. […] For this purpose, the test plants were either sown directly and grown in the same containers, or they were first grown separately as seedlings and transplanted into the test containers a few days prior to treatment. Depending on the species, the plants were kept at 10-25° C. or 20-35° C., respectively. The test period extended over 2 to 4 weeks. During this time, the plants were tended, and their response to the individual treatments was evaluated. Evaluation was carried out using a scale from 0 to 100. 100 means no emergence of the plants, or complete destruction of at least the aerial moieties, and 0 means no damage, or normal course of growth. A good herbicidal activity is given at values of at least 70 and a very good herbicidal activity is given at values of at least 85. The plants used in the greenhouse experiments were of the following species: [table]

APESV = experiment: greenhouse experiment, pre-emergence treatment; assay type: in vivo, Apera spica-venti; details: pre-emergence method, application rate 2000 g/ha, scale from 0 to 100
From the text: (§7) The seeds of the test plants were sown separately for each species. For the pre-emergence treatment, the active ingredients, which had been suspended or emulsified in water, were applied directly after sowing by means of finely distributing nozzles. The containers were irrigated gently to promote germination and growth and subsequently covered with transparent plastic hoods until the plants had rooted. This cover caused uniform germination of the test plants, unless this had been impaired by the active ingredients. Depending on the species, the plants were kept at 10-25° C. or 20-35° C., respectively. The test period extended over 2 to 4 weeks. During this time, the plants were tended, and their response to the individual treatments was evaluated. Evaluation was carried out using a scale from 0 to 100. 100 means no emergence of the plants, or complete destruction of at least the aerial moieties, and 0 means no damage, or normal course of growth. A good herbicidal activity is given at values of at least 70 and a very good herbicidal activity is given at values of at least 85. The plants used in the greenhouse experiments were of the following species: [table]

ECHCG [2] = experiment: greenhouse experiment, pre-emergence treatment; assay type: in vivo, Echinocloa crus-galli; details: pre-emergence method, application rate 2000 g/ha, scale from 0 to 100
From the text: as §7

ALOMY = experiment: greenhouse experiment, post-emergence treatment; assay type: in vivo, Alopecurus myosuroides; details: post-emergence method, application rate 2000 g/ha, scale from 0 to 100
From the text: as §1, §2, §3, §4, §5, §6

SETVI = experiment: greenhouse experiment, post-emergence treatment; assay type: in vivo, Setaria viridis; details: post-emergence method, application rate 2000 g/ha, scale from 0 to 100
From the text: as §1, §2, §3, §4, §5, §6

COC(=O)c1nc(C2CC2)ncc1-c1cccnc1Br [Example 18]
herbicidal activity against AMARE (AMARE; application rate 2000 g/ha): very good (a very good herbicidal activity is given at values of at least 85) | herbicidal activity against AVEFA (AVEFA): very good (a very good herbicidal activity is given at values of at least 85) | herbicidal activity against ECHCG (ECHCG [1]; application rate 2000 g/ha): very good (a very good herbicidal activity is given at values of at least 85) | herbicidal activity against APESV (APESV): very good (a very good herbicidal activity is given at values of at least 85) | herbicidal activity against ECHCG (ECHCG [2]): very good (a very good herbicidal activity is given at values of at least 85)

COC(=O)c1nc(C2CC2)ncc1-c1occc1C(F)F [Example 17]
herbicidal activity against AMARE (AMARE; application rate 2000 g/ha): very good (a very good herbicidal activity is given at values of at least 85)

O=C(O)c1nc(C2CC2)ncc1-c1ccncc1Br [Example 38]
herbicidal activity against ALOMY (ALOMY): very good (a very good herbicidal activity is given at values of at least 85) | herbicidal activity against AMARE (AMARE; application rate 2000 g/ha): very good (a very good herbicidal activity is given at values of at least 85) | herbicidal activity against AVEFA (AVEFA): very good (a very good herbicidal activity is given at values of at least 85) | herbicidal activity against APESV (APESV): very good (a very good herbicidal activity is given at values of at least 85) | herbicidal activity against ECHCG (ECHCG [2]): very good (a very good herbicidal activity is given at values of at least 85)

O=Cc1ccoc1-c1cnc(C2CC2)nc1C(=O)O [Example 40]
herbicidal activity against AMARE (AMARE; application rate 2000 g/ha): very good (a very good herbicidal activity is given at values of at least 85)

COC(=O)c1nc(OC)ncc1-c1ncc(F)cc1F [Example 53]
herbicidal activity against SETVI (SETVI): good (A good herbicidal activity is given at values of at least 70)

COC(=O)c1nc(C2CC2)ncc1-c1ncc(F)cc1Cl [Example 41]
herbicidal activity against ALOMY (ALOMY): very good (a very good herbicidal activity is given at values of at least 85) | herbicidal activity against AVEFA (AVEFA): very good (a very good herbicidal activity is given at values of at least 85) | herbicidal activity against SETVI (SETVI): very good (a very good herbicidal activity is given at values of at least 85) | herbicidal activity against APESV (APESV): very good (a very good herbicidal activity is given at values of at least 85) | herbicidal activity against ECHCG (ECHCG [2]): very good (a very good herbicidal activity is given at values of at least 85)

COC(=O)c1nc(C2CC2)ncc1-c1cnccc1Br [Example 32]
herbicidal activity against AMARE (AMARE; application rate 2000 g/ha): very good (a very good herbicidal activity is given at values of at least 85) | herbicidal activity against APESV (APESV): very good (a very good herbicidal activity is given at values of at least 85) | herbicidal activity against ECHCG (ECHCG [2]): very good (a very good herbicidal activity is given at values of at least 85)

O=C(O)c1nc(C2CC2)ncc1-c1ncc(F)cc1Br [Example 24]
herbicidal activity against AMARE (AMARE; application rate 2000 g/ha): very good (a very good herbicidal activity is given at values of at least 85) | herbicidal activity against AVEFA (AVEFA): very good (a very good herbicidal activity is given at values of at least 85) | herbicidal activity against ECHCG (ECHCG [1]; application rate 2000 g/ha): very good (a very good herbicidal activity is given at values of at least 85) | herbicidal activity against APESV (APESV): very good (a very good herbicidal activity is given at values of at least 85) | herbicidal activity against ECHCG (ECHCG [2]): very good (a very good herbicidal activity is given at values of at least 85)

CCc1ncc(-c2ncccc2Br)c(C(=O)O)n1 [Example 49]
herbicidal activity against SETVI (SETVI): very good (a very good herbicidal activity is given at values of at least 85) | herbicidal activity against ECHCG (ECHCG [2]): very good (a very good herbicidal activity is given at values of at least 85)

COC(=O)c1nc(C2CC2)ncc1-c1cnccc1Br [Example 34]
herbicidal activity against ALOMY (ALOMY): very good (a very good herbicidal activity is given at values of at least 85) | herbicidal activity against ECHCG (ECHCG [1]; application rate 2000 g/ha): very good (a very good herbicidal activity is given at values of at least 85) | herbicidal activity against SETVI (SETVI): very good (a very good herbicidal activity is given at values of at least 85)

CCc1ncc(-c2cccnc2Br)c(C(=O)O)n1 [Example 48]
herbicidal activity against SETVI (SETVI): very good (a very good herbicidal activity is given at values of at least 85)

COC(=O)c1nc(OC)ncc1-c1ncccc1F [Example 46]
herbicidal activity against AMARE (AMARE; application rate 2000 g/ha): good (A good herbicidal activity is given at values of at least 70)

O=C(O)c1nc(C2CC2)ncc1-c1ncc(F)cc1Cl [Example 42]
herbicidal activity against ALOMY (ALOMY): very good (a very good herbicidal activity is given at values of at least 85) | herbicidal activity against AVEFA (AVEFA): very good (a very good herbicidal activity is given at values of at least 85) | herbicidal activity against ECHCG (ECHCG [1]; application rate 2000 g/ha): very good (a very good herbicidal activity is given at values of at least 85) | herbicidal activity against APESV (APESV): very good (a very good herbicidal activity is given at values of at least 85) | herbicidal activity against ECHCG (ECHCG [2]): very good (a very good herbicidal activity is given at values of at least 85)

CCc1ncc(-c2ncc(F)cc2Br)c(C(=O)O)n1 [Example 54]
herbicidal activity against AMARE (AMARE; application rate 1000 g/ha): very good (a very good herbicidal activity is given at values of at least 85) | herbicidal activity against ECHCG (ECHCG [1]; application rate 1000 g/ha): very good (a very good herbicidal activity is given at values of at least 85)

O=C(O)c1nc(C2CC2)ncc1-c1cc(C(F)(F)F)ncc1Cl [Example 64]
herbicidal activity against ALOMY (ALOMY): very good (a very good herbicidal activity is given at values of at least 85) | herbicidal activity against AVEFA (AVEFA): very good (a very good herbicidal activity is given at values of at least 85) | herbicidal activity against ECHCG (ECHCG [1]; application rate 2000 g/ha): good (A good herbicidal activity is given at values of at least 70) | herbicidal activity against APESV (APESV): very good (a very good herbicidal activity is given at values of at least 85) | herbicidal activity against ECHCG (ECHCG [2]): very good (a very good herbicidal activity is given at values of at least 85)

O=C(O)c1nc(C2CC2)ncc1-c1ncccc1I [Example 39]
herbicidal activity against ALOMY (ALOMY): good (A good herbicidal activity is given at values of at least 70) | herbicidal activity against AVEFA (AVEFA): very good (a very good herbicidal activity is given at values of at least 85) | herbicidal activity against ECHCG (ECHCG [1]; application rate 2000 g/ha): good (A good herbicidal activity is given at values of at least 70) | herbicidal activity against APESV (APESV): very good (a very good herbicidal activity is given at values of at least 85) | herbicidal activity against ECHCG (ECHCG [2]): very good (a very good herbicidal activity is given at values of at least 85)

Cc1ccsc1-c1cnc(C2CC2)nc1C(=O)O [Example 3]
herbicidal activity against AMARE (AMARE; application rate 2000 g/ha): very good (a very good herbicidal activity is given at values of at least 85) | herbicidal activity against ECHCG (ECHCG [1]; application rate 2000 g/ha): very good (a very good herbicidal activity is given at values of at least 85) | herbicidal activity against APESV (APESV): very good (a very good herbicidal activity is given at values of at least 85) | herbicidal activity against ECHCG (ECHCG [2]): very good (a very good herbicidal activity is given at values of at least 85)

COC(=O)c1nc(C2CC2)ncc1-c1ncccc1Br [Example 28]
herbicidal activity against ALOMY (ALOMY): very good (a very good herbicidal activity is given at values of at least 85) | herbicidal activity against SETVI (SETVI): good (A good herbicidal activity is given at values of at least 70) | herbicidal activity against APESV (APESV): very good (a very good herbicidal activity is given at values of at least 85) | herbicidal activity against ECHCG (ECHCG [2]): very good (a very good herbicidal activity is given at values of at least 85)

COC(=O)c1nc(C2CC2)ncc1-c1ncc(F)cc1Br [Example 21]
herbicidal activity against ALOMY (ALOMY): very good (a very good herbicidal activity is given at values of at least 85) | herbicidal activity against AVEFA (AVEFA): very good (a very good herbicidal activity is given at values of at least 85) | herbicidal activity against ECHCG (ECHCG [1]; application rate 2000 g/ha): very good (a very good herbicidal activity is given at values of at least 85) | herbicidal activity against APESV (APESV): very good (a very good herbicidal activity is given at values of at least 85) | herbicidal activity against ECHCG (ECHCG [2]): very good (a very good herbicidal activity is given at values of at least 85)
